Read-outs that look alike come from different tables or passages of the source.
Experiments:
[1] = test system: Hep3B cells; assay: MTT cell viability assay; type: cell-based; conditions: 72 h, mean
Experimental: (§3) Cells were seeded in 96-well plates and exposed to DMSO, or indicated compounds for 72 hours. Cell viability was assessed using the 3-(4,5-dimethylthiazol-2-yl)-2,5-diphenyltetrazolium bromide (MTT) assay as described previously [46]. Briefly, 100 μl of 0.5 mg/ml MTT were added to each well and incubated at 37°C for 1 hour. After that, 100 μl of extraction reagents (0.1 M sodium acetate buffer for suspension cells or DMSO for attached cells) were added to each well to lyse cells and absorbance at 550 nm was measured. Cell viability was expressed as the percentage of surviving cells in drug-treated versus DMSO-treated control cells (which was considered as 100% viability).

[2] = test system: PLC/PRF/5 cells; assay: MTT cell viability assay; type: cell-based; conditions: 72 h; for Viability (% of control cells) PLC5/PRF/5 (5 μM): mean
Experimental: as §3

[3] = test system: SNU-16 cells; assay: MTT cell viability assay; type: cell-based; conditions: 72 h; for Viability (% of control cells) SNU-16 (5 μM): mean
Experimental: as §3

[4] = test system: RT-112 cells; assay: MTT cell viability assay; type: cell-based; conditions: 72 h; for Viability (% of control cells) RT-112 (5 μM) / Viability (% of control cells) RT-112 (10 μM): mean
Experimental: as §3

[5] = target: T1, CSF1R (Homo sapiens, UniProt P07333); assay: KINOMEscan competition-binding assay
T1 construct: purchased DiscoverRx (KINOMEscan service)
T1 sequence (P07333 20-972): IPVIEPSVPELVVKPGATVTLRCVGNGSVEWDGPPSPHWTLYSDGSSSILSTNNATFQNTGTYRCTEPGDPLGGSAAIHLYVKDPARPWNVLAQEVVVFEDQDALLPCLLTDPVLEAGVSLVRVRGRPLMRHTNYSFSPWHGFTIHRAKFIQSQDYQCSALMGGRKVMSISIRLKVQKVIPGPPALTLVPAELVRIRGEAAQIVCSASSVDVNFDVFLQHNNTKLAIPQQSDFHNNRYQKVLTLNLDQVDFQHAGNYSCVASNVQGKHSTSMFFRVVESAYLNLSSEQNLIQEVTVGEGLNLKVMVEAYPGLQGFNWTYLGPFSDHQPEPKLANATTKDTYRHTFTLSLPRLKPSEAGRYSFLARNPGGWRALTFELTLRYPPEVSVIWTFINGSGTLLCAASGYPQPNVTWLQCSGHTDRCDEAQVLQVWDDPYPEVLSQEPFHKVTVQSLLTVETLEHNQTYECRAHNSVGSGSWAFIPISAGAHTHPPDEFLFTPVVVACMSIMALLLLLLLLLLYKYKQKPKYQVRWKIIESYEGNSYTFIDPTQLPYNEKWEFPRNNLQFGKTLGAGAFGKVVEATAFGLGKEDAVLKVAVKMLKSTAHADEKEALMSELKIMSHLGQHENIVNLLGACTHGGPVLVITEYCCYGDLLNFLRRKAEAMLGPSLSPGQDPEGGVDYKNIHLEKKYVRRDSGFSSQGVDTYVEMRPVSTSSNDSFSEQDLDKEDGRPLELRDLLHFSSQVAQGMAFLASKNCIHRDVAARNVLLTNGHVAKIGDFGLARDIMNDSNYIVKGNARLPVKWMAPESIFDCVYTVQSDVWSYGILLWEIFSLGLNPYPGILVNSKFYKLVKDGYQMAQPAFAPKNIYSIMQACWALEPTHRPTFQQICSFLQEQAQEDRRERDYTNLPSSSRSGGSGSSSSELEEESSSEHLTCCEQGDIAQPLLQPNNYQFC
Experimental: (§1) The screening is based on a competition-binding assay and the K d values were determined as described previously.

[6] = target: T2, Erbb2 (Homo sapiens, UniProt P04626); assay: KINOMEscan competition-binding assay
T2 construct: purchased DiscoverRx (KINOMEscan service)
Experimental: as §1

[7] = target: T3, FGFR1 (Homo sapiens, UniProt P11362); assay: KINOMEscan competition-binding assay
T3 construct: purchased DiscoverRx (KINOMEscan service)
Experimental: as §1

[8] = target: T4, PDGFRB (Homo sapiens, UniProt P09619); assay: KINOMEscan competition-binding assay
T4 construct: purchased DiscoverRx (KINOMEscan service)
T4 sequence (P09619 33-1106): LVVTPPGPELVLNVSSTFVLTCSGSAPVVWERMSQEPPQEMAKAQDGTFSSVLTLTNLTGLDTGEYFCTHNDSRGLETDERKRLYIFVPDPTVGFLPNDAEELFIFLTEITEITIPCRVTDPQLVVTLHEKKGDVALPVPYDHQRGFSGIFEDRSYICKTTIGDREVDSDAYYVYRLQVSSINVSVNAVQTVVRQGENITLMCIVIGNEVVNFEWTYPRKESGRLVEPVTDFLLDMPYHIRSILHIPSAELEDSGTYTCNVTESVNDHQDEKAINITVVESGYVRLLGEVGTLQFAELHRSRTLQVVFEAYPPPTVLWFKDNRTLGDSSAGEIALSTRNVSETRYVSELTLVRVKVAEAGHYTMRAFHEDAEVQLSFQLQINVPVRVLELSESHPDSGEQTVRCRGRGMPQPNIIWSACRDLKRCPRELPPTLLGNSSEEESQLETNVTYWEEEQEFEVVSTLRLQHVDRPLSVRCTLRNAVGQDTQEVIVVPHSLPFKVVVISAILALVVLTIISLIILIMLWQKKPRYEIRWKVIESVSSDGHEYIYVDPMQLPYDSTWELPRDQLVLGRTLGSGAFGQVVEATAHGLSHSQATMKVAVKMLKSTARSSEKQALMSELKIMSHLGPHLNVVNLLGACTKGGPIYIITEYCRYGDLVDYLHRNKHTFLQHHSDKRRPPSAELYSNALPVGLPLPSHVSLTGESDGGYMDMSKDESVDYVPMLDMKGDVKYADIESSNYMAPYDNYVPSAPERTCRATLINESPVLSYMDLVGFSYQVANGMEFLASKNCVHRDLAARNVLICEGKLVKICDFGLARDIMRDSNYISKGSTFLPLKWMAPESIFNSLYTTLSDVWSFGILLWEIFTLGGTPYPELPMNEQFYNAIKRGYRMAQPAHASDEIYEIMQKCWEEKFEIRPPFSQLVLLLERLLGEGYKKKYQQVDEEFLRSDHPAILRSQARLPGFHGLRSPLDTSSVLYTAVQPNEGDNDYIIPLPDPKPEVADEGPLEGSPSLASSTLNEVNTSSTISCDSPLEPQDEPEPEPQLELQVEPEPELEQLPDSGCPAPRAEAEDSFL
Experimental: as §1

[9] = target: T5, VEGFR2 (Homo sapiens, UniProt P35968); assay: KINOMEscan competition-binding assay
T5 construct: purchased DiscoverRx (KINOMEscan service)
Experimental: as §1

[10] = target: T6, FLT3 (Homo sapiens, UniProt P36888); assay: KINOMEscan competition-binding assay
T6 construct: purchased DiscoverRx (KINOMEscan service)
T6 sequence (P36888 27-993): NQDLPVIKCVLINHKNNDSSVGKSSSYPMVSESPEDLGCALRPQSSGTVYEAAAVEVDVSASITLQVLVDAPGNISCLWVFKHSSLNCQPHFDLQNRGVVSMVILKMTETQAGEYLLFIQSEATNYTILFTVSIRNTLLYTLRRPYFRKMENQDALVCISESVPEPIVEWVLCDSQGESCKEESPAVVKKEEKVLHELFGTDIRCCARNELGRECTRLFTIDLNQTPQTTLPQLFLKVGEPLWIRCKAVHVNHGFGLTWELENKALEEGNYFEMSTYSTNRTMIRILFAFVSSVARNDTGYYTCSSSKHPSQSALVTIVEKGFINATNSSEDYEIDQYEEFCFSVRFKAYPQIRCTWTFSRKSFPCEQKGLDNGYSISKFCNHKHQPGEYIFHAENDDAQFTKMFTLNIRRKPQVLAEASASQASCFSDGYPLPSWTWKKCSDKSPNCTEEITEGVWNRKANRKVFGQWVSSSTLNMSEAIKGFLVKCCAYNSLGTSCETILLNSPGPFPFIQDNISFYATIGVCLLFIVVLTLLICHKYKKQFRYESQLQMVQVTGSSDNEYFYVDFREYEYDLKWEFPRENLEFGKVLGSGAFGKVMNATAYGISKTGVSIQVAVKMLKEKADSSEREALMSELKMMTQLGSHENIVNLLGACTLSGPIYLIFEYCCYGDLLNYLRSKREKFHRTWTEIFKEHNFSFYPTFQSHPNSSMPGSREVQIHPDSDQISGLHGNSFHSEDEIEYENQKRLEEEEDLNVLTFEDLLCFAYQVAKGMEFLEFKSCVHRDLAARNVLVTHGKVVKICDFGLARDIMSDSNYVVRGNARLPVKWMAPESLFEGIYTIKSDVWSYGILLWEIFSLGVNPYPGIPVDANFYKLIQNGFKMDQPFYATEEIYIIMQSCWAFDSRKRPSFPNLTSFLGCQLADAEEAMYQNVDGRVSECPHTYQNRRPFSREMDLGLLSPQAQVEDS
Experimental: as §1

[11] = target: T7, FGFR3 (Homo sapiens, UniProt P22607); assay: KINOMEscan competition-binding assay
T7 construct: purchased DiscoverRx (KINOMEscan service)
Experimental: as §1

[12] = target: T8, TYK2 (Homo sapiens, UniProt P29597); assay: KINOMEscan competition-binding assay
T8 construct: purchased DiscoverRx (KINOMEscan service)
T8 sequence (P29597 whole entry): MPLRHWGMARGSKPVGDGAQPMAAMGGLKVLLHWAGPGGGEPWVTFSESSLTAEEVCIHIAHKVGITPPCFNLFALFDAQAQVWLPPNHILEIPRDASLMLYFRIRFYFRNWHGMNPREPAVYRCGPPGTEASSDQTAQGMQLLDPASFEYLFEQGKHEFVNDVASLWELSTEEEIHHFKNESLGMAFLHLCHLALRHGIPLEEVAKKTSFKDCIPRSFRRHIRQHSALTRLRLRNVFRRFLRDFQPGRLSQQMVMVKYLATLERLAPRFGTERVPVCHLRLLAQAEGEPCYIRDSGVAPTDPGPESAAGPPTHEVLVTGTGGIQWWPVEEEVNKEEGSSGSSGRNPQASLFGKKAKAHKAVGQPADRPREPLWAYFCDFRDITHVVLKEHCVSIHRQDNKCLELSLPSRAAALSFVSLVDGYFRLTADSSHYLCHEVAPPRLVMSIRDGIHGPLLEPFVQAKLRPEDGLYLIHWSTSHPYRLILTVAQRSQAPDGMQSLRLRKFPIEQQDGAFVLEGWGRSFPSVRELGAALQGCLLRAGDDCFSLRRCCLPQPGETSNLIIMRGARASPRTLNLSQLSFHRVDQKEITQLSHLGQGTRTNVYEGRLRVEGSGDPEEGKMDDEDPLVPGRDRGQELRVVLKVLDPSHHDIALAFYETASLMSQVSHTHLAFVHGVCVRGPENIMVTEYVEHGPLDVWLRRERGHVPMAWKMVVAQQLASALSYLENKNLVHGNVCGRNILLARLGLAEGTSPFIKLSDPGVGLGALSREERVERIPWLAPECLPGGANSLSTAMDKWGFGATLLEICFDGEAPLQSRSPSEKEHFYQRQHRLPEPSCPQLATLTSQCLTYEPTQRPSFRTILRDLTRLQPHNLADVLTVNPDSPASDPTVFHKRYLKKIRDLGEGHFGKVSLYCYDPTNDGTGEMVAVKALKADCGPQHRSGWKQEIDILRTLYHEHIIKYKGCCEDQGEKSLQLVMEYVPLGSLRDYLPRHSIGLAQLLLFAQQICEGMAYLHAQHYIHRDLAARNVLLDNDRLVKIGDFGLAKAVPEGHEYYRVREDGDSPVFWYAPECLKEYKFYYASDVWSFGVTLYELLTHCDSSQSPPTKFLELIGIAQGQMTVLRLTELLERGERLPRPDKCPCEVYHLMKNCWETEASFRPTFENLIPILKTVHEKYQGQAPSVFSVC
Experimental: as §1

[13] = target: T9, FGFR2 (Homo sapiens, UniProt P21802); assay: KINOMEscan competition-binding assay
T9 construct: purchased DiscoverRx (KINOMEscan service)
Experimental: as §1

[14] = target: T10, FGFR4 (Homo sapiens, UniProt P22455); assay: KINOMEscan competition-binding assay
T10 construct: purchased DiscoverRx (KINOMEscan service)
T10 sequence (P22455 22-802): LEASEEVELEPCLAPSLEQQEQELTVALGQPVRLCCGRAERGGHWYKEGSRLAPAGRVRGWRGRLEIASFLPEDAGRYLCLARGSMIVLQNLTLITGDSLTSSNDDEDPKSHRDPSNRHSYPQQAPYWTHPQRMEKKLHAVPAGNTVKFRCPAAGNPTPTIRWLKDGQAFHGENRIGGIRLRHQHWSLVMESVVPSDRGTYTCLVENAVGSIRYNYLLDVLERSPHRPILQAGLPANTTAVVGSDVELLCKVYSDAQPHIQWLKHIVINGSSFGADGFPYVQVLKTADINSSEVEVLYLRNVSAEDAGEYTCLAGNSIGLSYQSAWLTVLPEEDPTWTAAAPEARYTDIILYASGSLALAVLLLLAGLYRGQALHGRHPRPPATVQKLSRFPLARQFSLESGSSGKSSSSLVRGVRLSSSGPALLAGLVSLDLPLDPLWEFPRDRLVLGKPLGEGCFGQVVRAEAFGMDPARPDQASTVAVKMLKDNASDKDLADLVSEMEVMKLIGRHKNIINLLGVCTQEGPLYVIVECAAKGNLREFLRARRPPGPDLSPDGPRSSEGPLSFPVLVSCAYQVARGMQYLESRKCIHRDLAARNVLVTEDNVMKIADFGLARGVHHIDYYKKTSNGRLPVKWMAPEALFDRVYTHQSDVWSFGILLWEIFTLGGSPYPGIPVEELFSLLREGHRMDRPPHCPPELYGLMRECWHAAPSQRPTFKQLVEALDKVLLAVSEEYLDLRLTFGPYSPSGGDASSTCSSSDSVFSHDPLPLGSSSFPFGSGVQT
Experimental: as §1

[15] = test system: MCF-7 cells; assay: MTT cell viability assay; type: cell-based; conditions: Homo sapiens, MCF7, MCF-7 (breast), 72 h
Experimental: as §3

[16] = test system: LC3B-I to LC3B-II conversion in RT-112 cells; assay: Western blot of autophagy marker LC3B; type: cell-based
Experimental: (§2) Cells were seeded and treated with indicated compounds at various concentrations for the indicated times. After treatment, cells were harvested by scraping with RIPA buffer containing protease inhibitors and phosphatase inhibitors (Roche Diagnostics Corp., Indianapolis, IN, USA). Total cell lysates were centrifuged at 13,000 g for 30 min and equal amounts of protein were separated by SDS–PAGE and immunoblotted with specific antibodies as previous described. The cells were allowed to recover for 24 h before following treatment. The small interfering RNA (siRNA) for Atg5 (HSS114103, HSS114104, HSS190366), and negative control (siCTL) were purchased from Invitrogen (Carlsbad, CA, USA). Transient transfection was performed by using lipofectamine 2000 according to the manufacture's instructions.

[17] = test system: MDA-MB-231 cells; assay: MTT cell viability assay; type: cell-based; conditions: Homo sapiens, MDA-MB-231 (breast), 72 h
Experimental: as §3

[18] = test system: phosphorylation of FGFR1, FGFR3, FRS2, ERK and AKT in RT-112 cells; assay: Western blot of FGFR signaling; type: cell-based
Experimental: as §2

[19] = test system: RPMI-8226 cells; assay: MTT cell viability assay; type: cell-based; conditions: Homo sapiens, RPMI-8226 (myeloma), 72 h
Experimental: as §3

[20] = test system: HepG2 cells; assay: MTT cell viability assay; type: cell-based; conditions: Homo sapiens, HepG2 (liver), 72 h
Experimental: as §3

[21] = test system: KMS-11 cells; assay: MTT cell viability assay; type: cell-based; conditions: Homo sapiens, KMS-11 (myeloma), 72 h
Experimental: as §3

[22] = test system: FGFR-dependent versus FGFR-independent cells; assay: MTT cell viability assay, mean over cell line panel; type: cell-based
[23] = test system: HCT-116 cells; assay: MTT cell viability assay; type: cell-based; conditions: Homo sapiens, HCT-116 (colorectal), 72 h
Experimental: as §3

[24] = test system: T24 cells; assay: MTT cell viability assay; type: cell-based; conditions: Homo sapiens, T-24, T24 (bladder), 72 h
Experimental: as §3

[25] = test system: RT4 cells; assay: MTT cell viability assay; type: cell-based; conditions: Homo sapiens, RT-4, RT4 (bladder), 72 h
Experimental: as §3

[26] = test system: RT-112 cells; assay: SA-β-galactosidase staining (senescence); type: cell-based
Experimental: Cells were seeded in 6-well plates and treated with indicated agents for 24h. Senescence was measured by Senescence β-Galactosidase Staining Kit according to the manufacture's instruction (Cell Signaling Technology, Danvers, MA, USA).

[27] = test system: A549 cells; assay: MTT cell viability assay; type: cell-based; conditions: Homo sapiens, A549 (lung), 72 h
Experimental: as §3

[28] = test system: RT-112 tumor xenografts; assay: RT-112 xenograft model; type: in vivo; conditions: for tumor growth inhibition (% TGI): ip, nude mice
Experimental: Tumors were measured weekly using calipers. Tumor volume (mm^3) was calculated from w^2×l/2 (w = width, l= length in mm of the tumor).

[29] = test system: FUDDLS cells; assay: MTT cell viability assay; type: cell-based; conditions: Homo sapiens, FUDDLS (sarcoma), 72 h
Experimental: as §3

[30] = test system: RT-112 cells; assay: Flow cytometric cell cycle analysis; type: cell-based; conditions: flow cytometry; for accumulation of the sub-G1 phase (apoptotic cell death): 48 h to 72 h
Experimental: Cells were seeded in 6-well plates and treated with DMSO or indicated compounds at various concentrations for the indicated times. After treatment, the cells were harvested by trypsinization, washed with PBS, and the pellets were fixed in ice-cold 70% ethanol at -20°C overnight. After centrifugation, the cells were incubated for 15 minutes at room temperature in 0.1 mL of phosphate-citric acid buffer (0.2 M NaHPO4, 0.1 M citric acid, and pH 7.8) and then stained with propidium iodide staining buffer containing Triton X-100 (0.1%, v/v), RNase A (100 μg/mL), and propidium iodide (80 μg/mL) for 30 minutes in the dark. DNA contents were analyzed by flow cytometry with CellQuest software (Becton Dickinson, Mountain View, CA, USA). The results were obtained from three independent experiments and the representative data were shown in Supplementary Figure S8 and S9.

CCN1CCN(c2ccc(Nc3cc(N(C)C(=O)Nc4c(Cl)c(OC)c(Cl)c(OC)c4Cl)ncn3)cc2)CC1 [MPT0L090]
Viability (% of control cells) Hep3B (5 μM) [1]: 47.1 % of control cells
Viability (% of control cells) PLC5/PRF/5 (5 μM) [2]: 72.6 % of control cells
Viability (% of control cells) SNU-16 (5 μM) [3]: 27.5 % of control cells
Viability (% of control cells) RT-112 (5 μM) [4]: 52.6 % of control cells
Viability (% of control cells) RT-112 (10 μM) [4]: 12.7 % of control cells

CCN1CCN(c2ccc(Nc3ncnc(N(C)C(=O)Nc4c(Cl)c(OC)c(Cl)c(OC)c4Cl)n3)cc2)CC1 [MPT0L145]
Kd [5]: 340 nM
Kd [6]: 10000 nM
Kd [7]: 130 nM
Kd [8]: 680 nM
Kd [9]: 3100 nM
Kd [10]: 1300 nM
Kd [11]: 270 nM
Kd [12]: 660 nM
Kd [13]: 670 nM
Kd [14]: 7500 nM
IC50 [15]: 5980 ± 680 nM
conversion of LC3B-I to LC3B-II [16]: induced the conversion of LC3B-I to LC3B-II in a time- and concentration-dependent manner
IC50 [17]: 6040 ± 260 nM
auto-phosphorylation of FGFR1 and FGFR3 and docking protein FRS2 ([18]; 1 h): exerted inhibitory activity
phosphorylation of ERK and AKT ([18]; 8 h): fully repressed
Viability (% of control cells) Hep3B (5 μM) [1]: 66.2 % of control cells
IC50 [19]: 8510 ± 1770 nM
IC50 ([2]; Homo sapiens, PLC/PRF/5 (liver)): 1480 ± 300 nM
Viability (% of control cells) PLC5/PRF/5 (5 μM) [2]: 20.6 % of control cells
IC50 [20]: 1180 ± 160 nM
IC50 [21]: 2050 ± 110 nM
IC50 ([3]; Homo sapiens, SNU-16 (gastric)): 650 ± 70 nM
Viability (% of control cells) SNU-16 (5 μM) [3]: 36.9 % of control cells
IC50 ([22]; mean over FGFR-dependent cell lines, read-out: mean IC50 in FGFR-dependent cells): 1830 nM
IC50 ([22]; mean over FGFR-independent cell lines, read-out: mean IC50 in FGFR-independent cells): 6740 nM
IC50 [23]: 6120 ± 10 nM
IC50 ([4]; Homo sapiens, RT-112 (bladder)): 1630 ± 10 nM
Viability (% of control cells) RT-112 (5 μM) [4]: 33.4 % of control cells
Viability (% of control cells) RT-112 (10 μM) [4]: 8.5 % of control cells
IC50 [24]: 6000 ± 500 nM
IC50 [25]: 4000 ± 580 nM
senescence (β-galactosidase activity) [26]: no appreciable senescence
IC50 [27]: 5970 ± 100 nM
tumor growth inhibition (% TGI) ([28]; 5 mg/kg, qd): 61.4%
tumor growth inhibition (% TGI) ([28]; 10 mg/kg, qd): 74.6%
safety from assessment of body weight loss after treatment ([28]; compared with cisplatin): better safety
IC50 [29]: 4740 ± 490 nM
G0/G1 cell cycle arrest ([30]; 4 μM, 24 h): induced G0/G1 cell cycle arrest to a dramatic extent
accumulation of the sub-G1 phase (apoptotic cell death) [30]: did not promote accumulation of the sub-G1 phase

COc1c(Cl)c(NC(=O)N(C)c2cc(-c3cccnc3)ncn2)c(Cl)c(OC)c1Cl [MPT0L147]
Viability (% of control cells) RT-112 (10 μM) [4]: 85.0 % of control cells

COc1c(Cl)c(NC(=O)N(C)c2cc(-c3cccc(C#N)c3)ncn2)c(Cl)c(OC)c1Cl [MPT0L150]
Viability (% of control cells) RT-112 (10 μM) [4]: 75.0 % of control cells

COc1c(Cl)c(NC(=O)N(C)c2cc(-c3cccc([N+](=O)[O-])c3)ncn2)c(Cl)c(OC)c1Cl [MPT0L151]
Viability (% of control cells) RT-112 (10 μM) [4]: 63.8 % of control cells

COc1c(Cl)c(NC(=O)N(C)c2cc(-c3ccc(C#N)cc3)ncn2)c(Cl)c(OC)c1Cl [MPT0L152]
Viability (% of control cells) RT-112 (10 μM) [4]: 55.3 % of control cells

COc1c(Cl)c(NC(=O)N(C)c2cc(-c3ccco3)ncn2)c(Cl)c(OC)c1Cl [MPT0L154]
Viability (% of control cells) RT-112 (10 μM) [4]: 76.1 % of control cells

COc1c(Cl)c(NC(=O)N(C)c2cc(-c3ccc(F)cc3)ncn2)c(Cl)c(OC)c1Cl [MPT0L155]
Viability (% of control cells) Hep3B (5 μM) [1]: 72.8 % of control cells
Viability (% of control cells) PLC5/PRF/5 (5 μM) [2]: 55.3 % of control cells
Viability (% of control cells) SNU-16 (5 μM) [3]: 80.5 % of control cells
Viability (% of control cells) RT-112 (5 μM) [4]: 92.6 % of control cells
Viability (% of control cells) RT-112 (10 μM) [4]: 44.4 % of control cells

COc1c(Cl)c(NC(=O)N(C)c2cc(-c3ccc(Cl)cc3)ncn2)c(Cl)c(OC)c1Cl [MPT0L156]
Viability (% of control cells) Hep3B (5 μM) [1]: 54.3 % of control cells
Viability (% of control cells) PLC5/PRF/5 (5 μM) [2]: 44.4 % of control cells
Viability (% of control cells) SNU-16 (5 μM) [3]: 76.7 % of control cells
Viability (% of control cells) RT-112 (5 μM) [4]: 98.3 % of control cells
Viability (% of control cells) RT-112 (10 μM) [4]: 34.8 % of control cells

CCN1CCN(c2ccc(-c3cc(N(C)C(=O)Nc4c(Cl)c(OC)c(Cl)c(OC)c4Cl)ncn3)cc2)CC1 [MPT0L182]
Viability (% of control cells) Hep3B (5 μM) [1]: 96.3 % of control cells
Viability (% of control cells) PLC5/PRF/5 (5 μM) [2]: 78.3 % of control cells
Viability (% of control cells) SNU-16 (5 μM) [3]: 63.2 % of control cells
Viability (% of control cells) RT-112 (5 μM) [4]: 95.6 % of control cells
Viability (% of control cells) RT-112 (10 μM) [4]: 8.6 % of control cells

N.N.[Cl][Pt][Cl] [cisplatin, reference compound]
tumor growth inhibition (% TGI) ([28]; 5 mg/kg, qwk): 56.3%

COc1cccc2c1C(=O)c1c(O)c3c(c(O)c1C2=O)C[C@@](O)(C(=O)CO)C[C@@H]3O[C@H]1C[C@H](N)[C@H](O)[C@H](C)O1 [doxorubicin, reference compound]
senescence (β-galactosidase activity) [26]: increased β-galactosidase activity

CC(=O)O[C@H]1C(=O)[C@@]2(C)[C@H]([C@H](OC(=O)c3ccccc3)[C@]3(O)C[C@H](OC(=O)[C@H](O)[C@@H](NC(=O)c4ccccc4)c4ccccc4)C(C)=C1C3(C)C)[C@]1(OC(C)=O)CO[C@@H]1C[C@@H]2O [paclitaxel]
accumulation of the sub-G1 phase (apoptotic cell death) [30]: induced pronounced apoptosis

Source: paper PMC5041986 (Oncotarget, 2016)
